Tested on: explants from leaves of cyclamen (species: Flamenco)
Test: Culture of explants from leaves (comparative)
Type: cell-based
Conditions: NAA 0.05 mg/l, 20 explants planted, 30 days
Experimental: For comparison, the explants from leaves and petioles of cyclamen (species: Flamenco) were cultured for 30 days by changing the contents of BA and sucrose in a basal medium prepared by adding 0.05 mg/l of NAA and 6 g/l of agar to the ⅓ MS medium and having a pH of 7.0. In all the cases, the root tubers were hardly enlarged by culture and rarely regenerated and accordingly, a clonal plant could not be obtained with high reproducibility.

Q: Which results are given for `c1ccc(CNc2ncnc3[nH]cnc23)cc1` [BA, benzylaminopurine]?
A: Number of enlarged explants (BA 0.05 mg/l): 0; Number of regenerate explants (BA 0.05 mg/l): 0; Number of enlarged explants (BA 0.05 mg/l, sucrose 30 g/m): 1; Number of regenerate explants (BA 0.05 mg/l, sucrose 30 g/m): 0; Number of enlarged explants (BA 0.05 mg/l, sucrose 70 g/m): 0; Number of regenerate explants (BA 0.05 mg/l, sucrose 70 g/m): 0; Number of enlarged explants (BA 0.05 mg/l, sucrose 90 g/m): 0; Number of regenerate explants (BA 0.05 mg/l, sucrose 90 g/m): 0; Number of enlarged explants (BA 0.1 mg/l): 1; Number of regenerate explants (BA 0.1 mg/l): 0; Number of enlarged explants (BA 0.1 mg/l, sucrose 30 g/m): 2; Number of regenerate explants (BA 0.1 mg/l, sucrose 30 g/m): 1; Number of enlarged explants (BA 0.1 mg/l, sucrose 70 g/m): 0; Number of regenerate explants (BA 0.1 mg/l, sucrose 70 g/m): 0; Number of enlarged explants (BA 0.1 mg/l, sucrose 90 g/m): 0; Number of regenerate explants (BA 0.1 mg/l, sucrose 90 g/m): 0; Number of enlarged explants (BA 0.5 mg/l): 4; Number of regenerate explants (BA 0.5 mg/l): 1; Number of enlarged explants (BA 0.5 mg/l, sucrose 30 g/m): 2; Number of regenerate explants (BA 0.5 mg/l, sucrose 30 g/m): 2; Number of enlarged explants (BA 0.5 mg/l, sucrose 70 g/m): 1; Number of regenerate explants (BA 0.5 mg/l, sucrose 70 g/m): 0; Number of enlarged explants (BA 0.5 mg/l, sucrose 90 g/m): 2; Number of regenerate explants (BA 0.5 mg/l, sucrose 90 g/m): 0; Number of enlarged explants (BA 1 mg/l): 4; Number of regenerate explants (BA 1 mg/l): 2; Number of enlarged explants (BA 1 mg/l, sucrose 30 g/m): 6; Number of regenerate explants (BA 1 mg/l, sucrose 30 g/m): 3; Number of enlarged explants (BA 1 mg/l, sucrose 70 g/m): 3; Number of regenerate explants (BA 1 mg/l, sucrose 70 g/m): 1; Number of enlarged explants (BA 1 mg/l, sucrose 90 g/m): 5; Number of regenerate explants (BA 1 mg/l, sucrose 90 g/m): 1

From US20050229276A1, “Method of producing cyclamen root tuber and method of proliferating cyclamen using the same” (Tokyo University of Agricultural, priority 2002, published 2005)
